In patent US20040071967A1, “Microcapsule containing phase-change material and nucleating agent” (priority 2000, published 2004):
Where two headings read alike, the source gives them in different places.

Legend:
Format in all cases: physicochemical
[1] = Dynamic surface tension of aqueous solutions, maximum bubble pressure method; conditions: for γ (0.1% solution) 1 b/s / γ (0.1% solution) 6 b/s / limiting γ 0.1 b/s / limiting γ 20 b/s / pC20: Tables 5 and 6; for limiting γ 0.1 b/s / limiting γ 20 b/s: lowest surface tension in water; for pC20: negative logarithm of molar concentration giving 52.1 dyne/cm at 0.1 b/s
Procedure: In practical terms, high bubble rates correspond to high printing speeds in lithographic printing, high spray or roller velocities in coating applications, and rapid application rates for agricultural products. […] This value is a measure of the efficiency of a surfactant. […] The critical aggregation concentrations (solubility limit or critical micelle concentration) were determined by intersection of the linear portion of a surface tension/In concentration curve with the limiting surface tension as is described in many textbooks. The limiting surface tensions at 0.1 and 20 bubbles/second (b/s) represent the lowest surface tensions in water which can be achieved at the given surface creation rate for a given surfactant regardless of the amount of surfactant used. These values give information about the relative ability to a surfactant to reduce surface defects under near-equilibrium condition (0.1 b/s) through very dynamic conditions (20 b/s). Lower surface tensions would allow the elimination of defects upon application of a formulation onto lower energy surfaces.

[2] = Critical aggregation concentration (solubility limit or critical micelle concentration)
Procedure: The critical aggregation concentrations (solubility limit or critical micelle concentration) were determined by intersection of the linear portion of a surface tension/In concentration curve with the limiting surface tension as is described in many textbooks. The limiting surface tensions at 0.1 and 20 bubbles/second (b/s) represent the lowest surface tensions in water which can be achieved at the given surface creation rate for a given surfactant regardless of the amount of surfactant used. These values give information about the relative ability to a surfactant to reduce surface defects under near-equilibrium condition (0.1 b/s) through very dynamic conditions (20 b/s). Lower surface tensions would allow the elimination of defects upon application of a formulation onto lower energy surfaces.

[3] = Ross-Miles foam test based upon ASTM D 1173-53, 0.1 wt % solution; conditions: Tables 5 and 6; for RM Foam initial: initial foam height
Procedure: The foam height is measured at the completion of the addition (“Initial Foam Height”) and the time required for the foam to dissipate is recorded (“Time to 0 Foam”). This test provides a comparison between the foaming characteristics of various surfactant solutions. In general, in coatings, inks, and agricultural formulations, foam is undesirable because is complicates handling and can lead to coating and print defects, and to inefficient application of agricultural materials.

Q: With “3.5 mole ethoxylate of 2,4,7,9-tetramethyl-5-decyne-4,7-diol capped with 2 moles of propylene oxide [Example 3]” as the substance, how does the “γ (0.1% solution) 1 b/s” value ([1]; 1 b/s) read?
A: The value was 33.6 dyne/cm.

Q: What about the “γ (0.1% solution) 6 b/s” value ([1]; 6 b/s) of the same substance?
A: Its value is 36.6 dyne/cm.

Q: And the “limiting γ 0.1 b/s” value ([1]; 0.1 b/s)?
A: Its value is 29.3 dyne/cm.

Q: And the “limiting γ 20 b/s” value ([1]; 20 b/s)?
A: The value was 31.4 dyne/cm.

Q: What about the pC20 [1] of the same substance?
A: Its pC20 is 4.07.

Q: And the “Sol Limit” value [2]?
A: The value was 0.21 wt %.

Q: And the “RM Foam initial” value [3]?
A: Its value is 1.0 cm.

Q: And the “RM Foam (t to 0)” value ([3]; time to 0 foam)?
A: Its value is “(10 s)”.

Q: Which “γ (0.1% solution) 1 b/s” value ([1]; 1 b/s) does the source give for “10 mole EO/2 mole PO block derivative of 2,4,7,9-tetramethyl-5-decyne-4,7-diol [Example 5]” here?
A: Its value is 42.0 dyne/cm.

Q: What about the “γ (0.1% solution) 6 b/s” value ([1]; 6 b/s) of the same substance?
A: Its value is 44.3 dyne/cm.

Q: What about the “Dynamic Surface Tension” value ([1]; 0.1 wt % in distilled water, 0.1 b/s) of the same substance?
A: Its value is 40.5 dyne/cm.

Q: And the “Dynamic Surface Tension” value ([1]; 0.1 wt % in distilled water, 1 b/s)?
A: Its value is 42.0 dyne/cm.

Q: What about the “Dynamic Surface Tension” value ([1]; 0.1 wt % in distilled water, 6 b/s) of the same substance?
A: Its value is 44.3 dyne/cm.

Q: What about the “Dynamic Surface Tension” value ([1]; 0.1 wt % in distilled water, 15 b/s) of the same substance?
A: The value was 47.1 dyne/cm.

Q: And the “Dynamic Surface Tension” value ([1]; 0.1 wt % in distilled water, 20 b/s)?
A: The value was 48.1 dyne/cm.

Q: What about the “Dynamic Surface Tension” value ([1]; 0.5 wt % in distilled water, 0.1 b/s) of the same substance?
A: Its value is 32.4 dyne/cm.

Q: And the “Dynamic Surface Tension” value ([1]; 0.5 wt % in distilled water, 1 b/s)?
A: The value was 33.6 dyne/cm.

Q: And the “Dynamic Surface Tension” value ([1]; 0.5 wt % in distilled water, 6 b/s)?
A: The value was 35.1 dyne/cm.

Q: What about the “Dynamic Surface Tension” value ([1]; 0.5 wt % in distilled water, 15 b/s) of the same substance?
A: Its value is 36.6 dyne/cm.

Q: What about the “Dynamic Surface Tension” value ([1]; 0.5 wt % in distilled water, 20 b/s) of the same substance?
A: Its value is 37.2 dyne/cm.

Q: What about the “Dynamic Surface Tension” value ([1]; 1.0 wt % in distilled water, 0.1 b/s) of the same substance?
A: Its value is 29.8 dyne/cm.

Q: What about the “Dynamic Surface Tension” value ([1]; 1.0 wt % in distilled water, 1 b/s) of the same substance?
A: The value was 30.5 dyne/cm.

Q: And the “Dynamic Surface Tension” value ([1]; 1.0 wt % in distilled water, 6 b/s)?
A: Its value is 32.1 dyne/cm.

Q: What about the “Dynamic Surface Tension” value ([1]; 1.0 wt % in distilled water, 15 b/s) of the same substance?
A: The value was 33.0 dyne/cm.

Q: What about the “Dynamic Surface Tension” value ([1]; 1.0 wt % in distilled water, 20 b/s) of the same substance?
A: Its value is 33.7 dyne/cm.

Q: What about the “limiting γ 0.1 b/s” value ([1]; 0.1 b/s) of the same substance?
A: Its value is 29.8 dyne/cm.

Q: And the “limiting γ 20 b/s” value ([1]; 20 b/s)?
A: Its value is 33.7 dyne/cm.

Q: And the pC20 [1]?
A: Its pC20 is 4.05.

Q: And the “Sol Limit” value ([2]; water, Tables 5 and 6, unit printed only in Table 7 footnote)?
A: Its value is “(0.78) wt %”.

Q: What about the “RM Foam (foam height remaining)” value ([3]; cm after 5 minutes) of the same substance?
A: The value was “(1.3) cm”.

Q: What about the “RM Foam initial” value [3] of the same substance?
A: Its value is 2.1 cm.
